The results in this text go back to ChEMBL document CHEMBL4308873, “Synthesis and biological evaluation of Ginsenoside Compound K analogues as a novel class of anti-asthmatic agents” (2019).

What all share (assay type): functional
Test [1] deals with Mus musculus. Put plainly: Anti-asthmatic activity in ovalbumin-induced asthmatic BALB/c mouse model assessed as IgE level in plasma at 20 mg/kg, po co-administered with ovalbumin from day 21 to 28 of experiment period by ELISA (reference value: 2544.05 +/- 229.07 ng/ml). Background: An ELISA detects its analyte on a solid surface through an enzyme-linked reagent.
The test system of test [2] is Mus musculus. The test can be described thus: Anti-asthmatic activity in ovalbumin-induced asthmatic BALB/c mouse model assessed as 6.25 mg/ml methacholine-induced airway resistance at 20 mg/kg, po co-administered with ovalbumin from day 21 to 28 of experiment period measured post last dose by plethysmography (reference value: 2.44 +/- 0.87 cmH2O/ml).
The test system of test [3] is Mus musculus. The test can be described thus: Anti-asthmatic activity in ovalbumin-induced asthmatic BALB/c mouse model assessed as 12.5 mg/ml methacholine-induced airway resistance at 20 mg/kg, po co-administered with ovalbumin from day 21 to 28 of experiment period measured post last dose by plethysmography (reference value: 6.03 +/- 1.02 cmH2O/ml).
In test [4] the test system is Mus musculus. Put plainly: Anti-asthmatic activity in ovalbumin-induced asthmatic BALB/c mouse model assessed as 25 mg/ml methacholine-induced airway resistance at 20 mg/kg, po co-administered with ovalbumin from day 21 to 28 of experiment period measured post last dose by plethysmography (reference value: 14.03 +/- 1.15 cmH2O/ml).
The test system of test [5] is Mus musculus. The test can be described thus: Anti-asthmatic activity in ovalbumin-induced asthmatic BALB/c mouse model assessed as 50 mg/ml methacholine-induced airway resistance at 20 mg/kg, po co-administered with ovalbumin from day 21 to 28 of experiment period measured post last dose by plethysmography (reference value: 64.33 +/- 3.41 cmH2O/ml).
Test [6] concerns Mus musculus. The test can be described thus: Anti-asthmatic activity in ovalbumin-induced asthmatic BALB/c mouse model assessed as 100 mg/ml methacholine-induced airway resistance at 20 mg/kg, po co-administered with ovalbumin from day 21 to 28 of experiment period measured post last dose by plethysmography (reference value: 84.5 +/- 2.41 cmH2O/ml).
In test [7] the test system is Mus musculus. Put plainly: Anti-asthmatic activity in ovalbumin-induced asthmatic BALB/c mouse model assessed as IgE level in plasma at 0.6 mg/kg, po co-administered with ovalbumin from day 21 to 28 of experiment period by ELISA (reference value: 2544.05 +/- 229.07 ng/ml).
The test system of test [8] is Mus musculus. Put plainly: Anti-asthmatic activity in ovalbumin-induced asthmatic BALB/c mouse model assessed as 6.25 mg/ml methacholine-induced airway resistance at 0.6 mg/kg, po co-administered with ovalbumin from day 21 to 28 of experiment period measured post last dose by plethysmography (reference value: 2.44 +/- 0.87 cmH2O/ml).
Test [9] has as its system Mus musculus. Put plainly: Anti-asthmatic activity in ovalbumin-induced asthmatic BALB/c mouse model assessed as 12.5 mg/ml methacholine-induced airway resistance at 0.6 mg/kg, po co-administered with ovalbumin from day 21 to 28 of experiment period measured post last dose by plethysmography (reference value: 6.03 +/- 1.02 cmH2O/ml).
Test [10] has as its system Mus musculus. The test can be described thus: Anti-asthmatic activity in ovalbumin-induced asthmatic BALB/c mouse model assessed as 25 mg/ml methacholine-induced airway resistance at 0.6 mg/kg, po co-administered with ovalbumin from day 21 to 28 of experiment period measured post last dose by plethysmography (reference value: 14.03 +/- 1.15 cmH2O/ml).
Test [11] concerns Mus musculus. Put plainly: Anti-asthmatic activity in ovalbumin-induced asthmatic BALB/c mouse model assessed as 50 mg/ml methacholine-induced airway resistance at 0.6 mg/kg, po co-administered with ovalbumin from day 21 to 28 of experiment period measured post last dose by plethysmography (reference value: 64.33 +/- 3.41 cmH2O/ml).
The subject of test [12] is Mus musculus. Put plainly: Anti-asthmatic activity in ovalbumin-induced asthmatic BALB/c mouse model assessed as 100 mg/ml methacholine-induced airway resistance at 0.6 mg/kg, po co-administered with ovalbumin from day 21 to 28 of experiment period measured post last dose by plethysmography (reference value: 84.5 +/- 2.41 cmH2O/ml).

In the case of `CC(C)=CCC[C@](C)(O[C@@H]1O[C@H](CO)[C@@H](O)[C@H](O)[C@H]1O)[C@H]1CC[C@]2(C)[C@@H]1[C@H](O)C[C@@H]1[C@@]3(C)CC[C@H](O)C(C)(C)[C@@H]3CC[C@]12C`, the Activity with Mus musculus [1] amounted to 1501.85 ng/mL; with Mus musculus [2], 2.47 cmH2O/ml; with Mus musculus [3] it was 4.14 cmH2O/ml; with Mus musculus [4], 4.79 cmH2O/ml; with Mus musculus [5] it was 5.04 cmH2O/ml; with Mus musculus [6] it was 6.21 cmH2O/ml.

`CC(C)=CCC[C@](C)(O[C@H]1O[C@@H](C)[C@H](O)[C@@H](O)[C@H]1O)[C@H]1CC[C@]2(C)[C@@H]1C(=O)C[C@@H]1[C@@]3(C)CC[C@H](O)C(C)(C)[C@@H]3CC[C@]12C`: the Activity with Mus musculus [1] is 2706.85 ng/mL.

Regarding `CC(C)=CCC[C@](C)(O[C@@H]1O[C@H](CO)[C@H](O)[C@H](O)[C@H]1O)[C@H]1CC[C@]2(C)[C@@H]1C(=O)C[C@@H]1[C@@]3(C)CC[C@H](O)C(C)(C)[C@@H]3CC[C@]12C`, the Activity in the test with Mus musculus [1] came out at 975.82 ng/mL; with Mus musculus [2], 2.04 cmH2O/ml; in the test with Mus musculus [3], 2.78 cmH2O/ml; in the test on Mus musculus [4] it was 3.28 cmH2O/ml; in the test on Mus musculus [5] it was 4.81 cmH2O/ml; with Mus musculus [6] it was 6.35 cmH2O/ml.

As for `CC(C)=CCC[C@](C)(O[C@@H]1O[C@H](CO)[C@@H](O)[C@H](O)[C@H]1O)[C@H]1CC[C@]2(C)[C@@H]1/C(=N/O)C[C@@H]1[C@@]3(C)CC/C(=N\O)C(C)(C)[C@@H]3CC[C@]12C`, the Activity in the test on Mus musculus [1] came to 1258.27 ng/mL; with Mus musculus [2] it was 3.4 cmH2O/ml; in the test on Mus musculus [3], 5.06 cmH2O/ml; in the test on Mus musculus [4] it was 5.72 cmH2O/ml; in the test with Mus musculus [5] it was 4.93 cmH2O/ml; in the test with Mus musculus [6], 5.73 cmH2O/ml.

As for `CC(C)(O)CCC[C@](C)(O[C@@H]1O[C@H](CO)[C@@H](O)[C@H](O)[C@H]1O)[C@H]1CC[C@]2(C)[C@@H]1C(=O)C[C@@H]1[C@@]3(C)CC[C@H](O)C(C)(C)[C@@H]3CC[C@]12C`, in the test with Mus musculus [1], the Activity is 2027.95 ng/mL.

Take `CO[C@H]1CC[C@]2(C)[C@H]3CC(=O)[C@@H]4[C@@H]([C@](C)(CCC=C(C)C)O[C@@H]5O[C@H](CO)[C@@H](O)[C@H](O)[C@H]5O)CC[C@@]4(C)[C@]3(C)CC[C@H]2C1(C)C`: the Activity in the test on Mus musculus [1] came to 3593.38 ng/mL.

In the case of `CC(C)=CCC[C@](C)(O[C@@H]1OC[C@@H](O)[C@H](O)[C@H]1O)[C@H]1CC[C@]2(C)[C@@H]1C(=O)C[C@@H]1[C@@]3(C)CC[C@H](O)C(C)(C)[C@@H]3CC[C@]12C`, the Activity with Mus musculus [1] stood at 2439.3 ng/mL.

In the case of `CC(=O)O[C@H]1CC[C@]2(C)[C@H]3CC(=O)[C@@H]4[C@@H]([C@](C)(CCC=C(C)C)O[C@@H]5O[C@H](CO)[C@@H](O)[C@H](O)[C@H]5O)CC[C@@]4(C)[C@]3(C)CC[C@H]2C1(C)C`, the Activity in the test with Mus musculus [1] is 3224.5 ng/mL.

Consider `CO/N=C1\CC[C@]2(C)[C@H]3CC(=O)[C@@H]4[C@@H]([C@](C)(CCC=C(C)C)O[C@@H]5O[C@H](CO)[C@@H](O)[C@H](O)[C@H]5O)CC[C@@]4(C)[C@]3(C)CC[C@H]2C1(C)C`, for which, in the test with Mus musculus [1], the Activity is 2023.54 ng/mL.

Turning to `CC(C)CCC[C@](C)(O[C@@H]1O[C@H](CO)[C@@H](O)[C@H](O)[C@H]1O)[C@H]1CC[C@]2(C)[C@@H]1C(=O)C[C@@H]1[C@@]3(C)CC[C@H](O)C(C)(C)[C@@H]3CC[C@]12C`, the Activity in the test on Mus musculus [1] amounted to 1976.31 ng/mL.

With `CC(C)=CCC[C@](C)(O[C@@H]1O[C@H](CO)[C@@H](O)[C@H](O)[C@H]1O)[C@H]1CC[C@]2(C)[C@@H]1C(=O)C[C@@H]1[C@@]3(C)CCC(=O)C(C)(C)[C@@H]3CC[C@]12C`, the Activity with Mus musculus [1] was determined as 2439.3 ng/mL.

On to `CC(C)=CCC[C@](C)(O[C@@H]1O[C@H](CO)[C@@H](O)[C@H](O)[C@H]1O)[C@H]1CC[C@]2(C)[C@@H]1C(=O)C[C@@H]1[C@@]3(C)CC/C(=N\O)C(C)(C)[C@@H]3CC[C@]12C`, for which, in the test with Mus musculus [1], the Activity came to 1968.31 ng/mL.

`CC(C)=CCC[C@](C)(O[C@@H]1O[C@H](CO)[C@@H](O)[C@H](O)[C@@H]1O)[C@H]1CC[C@]2(C)[C@@H]1C(=O)C[C@@H]1[C@@]3(C)CC[C@H](O)C(C)(C)[C@@H]3CC[C@]12C`: the Activity turned out to be 1136.96 ng/mL with Mus musculus [1]; 2.83 cmH2O/ml with Mus musculus [2]; 3.54 cmH2O/ml in the test with Mus musculus [3]; 3.58 cmH2O/ml in the test with Mus musculus [4]; 4.94 cmH2O/ml with Mus musculus [5]; 5.97 cmH2O/ml in the test with Mus musculus [6].

As to `CC(C)=CCC[C@](C)(O[C@@H]1O[C@H](CO)[C@@H](O)[C@H](O)[C@H]1O)[C@H]1CC[C@]2(C)[C@@H]1C(=O)C[C@@H]1[C@@]3(C)CC=CC(C)(C)[C@@H]3CC[C@]12C`, the Activity with Mus musculus [1] turned out to be 1191.08 ng/mL; with Mus musculus [2], 2.86 cmH2O/ml; in the test on Mus musculus [3], 3.24 cmH2O/ml; in the test on Mus musculus [4], 4.89 cmH2O/ml; in the test on Mus musculus [5] it was 5.61 cmH2O/ml; in the test on Mus musculus [6] it was 5.76 cmH2O/ml.

With `CC(C)=CCC[C@](C)(O[C@@H]1O[C@H](CO)[C@@H](O)[C@H](O)[C@H]1O)[C@H]1CC[C@]2(C)[C@@H]1C(=O)C[C@@H]1[C@@]3(C)CC[C@H](O)C(C)(C)[C@@H]3CC[C@]12C`, the Activity with Mus musculus [1] was determined as 1237.11 ng/mL; in the test on Mus musculus [2], 2.18 cmH2O/ml; in the test with Mus musculus [3] it was 3.13 cmH2O/ml; in the test on Mus musculus [4] it was 4.65 cmH2O/ml; with Mus musculus [5] it was 5.9 cmH2O/ml; in the test with Mus musculus [6] it was 6.79 cmH2O/ml.

In the case of `CC(=O)OCC(=O)[C@@]1(O)[C@H](C)C[C@H]2[C@@H]3CCC4=CC(=O)C=C[C@]4(C)[C@@]3(F)[C@@H](O)C[C@@]21C` [DEXAMETHASONE ACETATE], the Activity is 1131.05 ng/mL with Mus musculus [7]; 2.89 cmH2O/ml in the test with Mus musculus [8]; 3.09 cmH2O/ml in the test on Mus musculus [9]; 3.36 cmH2O/ml in the test with Mus musculus [10]; 3.04 cmH2O/ml with Mus musculus [11]; 3.06 cmH2O/ml in the test on Mus musculus [12].
